Data from ChEMBL document CHEMBL1201862, “PubChem BioAssay data set” (2004).
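These data come from cells grown in 96-well plates and exposed to compound for 48 hours at five concentrations. GI50 = concentration required for 50% inhibition of growth.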 Activity calls are given as the source filed them. No stated cut-off is given here; in the data, active = GI50 up to about 1.1 µM and inactive = higher.

What was measured:
Assay in all cases: inhibition of tumour cell growth, NCI panel, 48 h
[1] = system: A498
[2] = system: RXF 393
[3] = system: EKVX
[4] = system: SNB-19
[5] = system: XF498
[6] = system: CCRF-CEM
[7] = system: MOLT-4
[8] = system: LOX IMVI
[9] = system: SK-MEL-5
[10] = system: SNB-75
[11] = system: CAKI-1
[12] = system: HCT-15
[13] = system: HOP-92
[14] = system: TK-10
[15] = system: UACC-257
[16] = system: M19-MEL
[17] = system: 786-0
[18] = system: COLO 205
[19] = system: SW-620
[20] = system: SR
[21] = system: KM-20L2
[22] = system: A549
[23] = system: DLD-1
[24] = system: SF-295
[25] = system: UO-31
[26] = system: NCI-H226
[27] = system: M14
[28] = system: SK-OV-3
[29] = system: SF-268
[30] = system: OVCAR-4
[31] = system: HL-60
[32] = system: K562
[33] = system: U-251
[34] = system: OVCAR-5
[35] = system: SF-539
[36] = system: HT-29
[37] = system: RPMI-8226
[38] = system: HCC 2998
[39] = system: SN12C
[40] = system: HCT-116
[41] = system: LXFL 529
[42] = system: SNB-78
[43] = system: ACHN
[44] = system: KM12
[45] = system: RXF 631
[46] = system: UACC-62
[47] = system: OVCAR-8
[48] = system: HOP-62
[49] = system: NCI-H522
[50] = system: OVCAR-3
[51] = system: HOP-18
[52] = system: NCI-H23
[53] = system: Malme-3M
[54] = system: NCI-H460
[55] = system: SK-MEL-2
[56] = system: IGROV-1
[57] = system: DMS-114
[58] = system: SK-MEL-28

Structure (SMILES): C=C[C@]1(C)CCC2=C(CCC3C2(C)CCC[C@@]3(C)COC(C)=O)C1 (stereo partly drawn)
- GI50 [1]: 25.4 µM (inactive)
- GI50 [2]: 22 µM (inactive)
- GI50 [3]: 19.5 µM (inactive)
- GI50 [4]: 17.6 µM (inactive)
- GI50 [5]: 19.9 µM (inactive)
- GI50 [6]: 17.6 µM (inactive)
- GI50 [7]: 14.7 µM (inactive)
- GI50 [8]: 18.6 µM (inactive)
- GI50 [9]: 16.9 µM (inactive)
- GI50 [10]: 18.1 µM (inactive)
- GI50 [11]: 20.5 µM (inactive)
- GI50 [12]: 16.8 µM
- GI50 [13]: 19.5 µM (inactive)
- GI50 [14]: 25.8 µM (inactive)
- GI50 [15]: 25.2 µM (inactive)
- GI50 [16]: 21.7 µM (inactive)
- GI50 [17]: 17.3 µM (inactive)
- GI50 [18]: 16.3 µM (inactive)
- GI50 [19]: 19.3 µM (inactive)
- GI50 [20]: 18.6 µM (inactive)
- GI50 [21]: 17.5 µM (inactive)
- GI50 [22]: 22.8 µM (inactive)
- GI50 [23]: 18.5 µM (inactive)
- GI50 [24]: 17.8 µM (inactive)
- GI50 [25]: 18.8 µM (inactive)
- GI50 [26]: 18.2 µM (inactive)
- GI50 [27]: 20.9 µM (inactive)
- GI50 [28]: 18.5 µM (inactive)
- GI50 [29]: 23.4 µM (inactive)
- GI50 [30]: 19.7 µM (inactive)
- GI50 [31]: 19.7 µM (inactive)
- GI50 [32]: 16.5 µM (inactive)
- GI50 [33]: 17.8 µM (inactive)
- GI50 [34]: 18.2 µM (inactive)
- GI50 [35]: 20.9 µM (inactive)
- GI50 [36]: 18.7 µM (inactive)
- GI50 [37]: 17.1 µM (inactive)
- GI50 [38]: 17.7 µM (inactive)
- GI50 [39]: 16.8 µM (inactive)
- GI50 [40]: 17.2 µM (inactive)
- GI50 [41]: 17.5 µM (inactive)
- GI50 [42]: 18.7 µM (inactive)
- GI50 [43]: 17.5 µM (inactive)
- GI50 [44]: 19.3 µM (inactive)
- GI50 [45]: 16.7 µM (inactive)
- GI50 [46]: 21.1 µM (inactive)
- GI50 [47]: 19.1 µM (inactive)
- GI50 [48]: 22.9 µM (inactive)
- GI50 [49]: 15.4 µM (inactive)
- GI50 [50]: 17.7 µM (inactive)
- GI50 [51]: 25.9 µM (inactive)
- GI50 [52]: 22 µM (inactive)
- GI50 [53]: 25 µM (inactive)
- GI50 [54]: 17.6 µM (inactive)
- GI50 [55]: 14.6 µM (inactive)
- GI50 [56]: 20.7 µM (inactive)
- GI50 [57]: 22 µM (inactive)
- GI50 [58]: 33.1 µM (inactive)
